Patent publication US9808500B2, “Antithrombotic nanoparticle” (Washington University, priority 2009, dated 2017)
“Also recorded” adds a separate entry of the source.

Legend:
thrombin [1] = biological target: T1, thrombin (Homo sapiens, UniProt P00734); conditions: thrombin inhibitor, quoted; cited from earlier work
mice = conditions: cited from earlier work
[2] = in vivo; cited from earlier work
C57BL/6 mice [3] = test: Photochemical (rose bengal) injury, thrombotic occlusion of the carotid artery; type: in vivo, mouse; conditions: for time to occlusion of the carotid artery: i.v. bolus 10 min before rose bengal, heparin 0.125 mg/kg, PPACK 12.5 mg/kg, nanoparticles 1 mL/kg; for effect on occlusion time / thrombus formation (in words): photochemical injury, C57BL/6 mice
From the text: As described in previous work, 10-12 week old male C57BL/6 mice (weight 25-30 g) were subjected to photochemical injury of the carotid. After anesthetization with sodium pentobarbital, the mice were secured under a dissecting microscope for isolation of the right common carotid artery via midline cervical incision. An ultrasonic flow probe (model 0.5 VB Transonic Systems, Ithaca, N.Y.) was applied to the artery to measure flow for the duration of each experiment. A 1.5 mW 540 nm HeNe laser (Melles Griot, Carlsbad, Calif.) was focused on the artery at a distance of 6 cm. […] In additional control experiments (n=4), no treatment preceded injection of the rose bengal dye. Occlusion of the carotid artery was noted and experiments were terminated upon the stable (>5 minutes) maintenance of zero flow.

thrombin [4] = biological target: T1, thrombin; test: Thrombin inhibition and inhibition kinetics with chromogenic substrate Chromozym TH; type: biochemical
Protocol: Tosyl-Gly-Pro-Arg-4 nitranilide acetate (Chromozym TH, Roche Applied Science) was employed to assay PPACK inhibition of thrombin and plasmin in accordance with previously described methods [31]. 100 μL of 12 nM thrombin was incubated for one minute at room temperature with selected amounts of PPACK or PPACK-nanoparticles or with an excess of bare nanoparticles. 500 μL (100 μM) of the thrombin substrate Tosyl-Gly-Pro-Arg-4 nitranilide acetate were added to terminate the PPACK-thrombin interaction. In accordance with previous work, thrombin activity against the substrate was measured via absorbance at 405 nm. The rate of change in absorbance at 405 nm was taken as representative of the amount of uninhibited thrombin available to cleave Chromozym TH.
In additional experiments, Chromozym TH was used to determine the kinetics of the PPACK-thrombin interaction. […] Thrombin activity was measured as above. Kinetics of inhibition were characterized in accordance with the work of Kettner and Shaw [26]. The assay yielded the apparent pseudo-first-order rate constant for thrombin inactivation (kapp). Modeling inhibition according to equation (1), an estimate of the second order constants (k2/Ki) for the PPACK-thrombin interaction and the PPACK nanoparticle-thrombin interaction were obtained via equation (2). To best obtain a pseudo-first-order reaction, thrombin dilution was maximized within the limits set by the sensitivity of the Chromozym TH assay.

thrombin [5] = biological target: T1, thrombin; conditions: literature value; cited from earlier work
[6] = Stability of the nanoparticle formulation (HPLC of unattached PPACK after storage); type: physicochemical; conditions: PPACK particles: after dialysis and one week storage at four degrees
Protocol: To functionalize particles containing 1,2-distearoyl-sn-glycero-3-phosphoethanolamine-N-[carboxy(polyethylene glycol)-2000] with PPACK, amine-carboxyl coupling was employed to conjugate the PPACK N-terminus to the bare carboxyl groups on the synthesized particles. After one hour mixing of 1 mL emulsion with 12.5 mg PPACK, EDCI 1-[3-(Dimethylamino)propyl]-3-ethylcarbodiimide methiodide (2 mg) was added for overnight coupling. Excess PPACK and EDCI were removed by dialysis (MWCO 3000-5000). Particle size was assessed before and after PPACK conjugation as described above. Extent of PPACK coupling was determined by reverse-phase HPLC quantification of uncoupled PPACK after centrifugation of nanoparticles with Cleanascite lipid adsorption reagent (Agilent Technologies). […] PPACK was detected via phenylalanine absorbance (258 nm). Zeta potential measurements, taking into consideration hydrodynamic diameter measurements, were used for further verification of PPACK coupling (Brookhaven Instruments).

C57BL/6 mice [7] = conditions: heparin 0.125 mg/kg, rose bengal model; cited from earlier work

CN[C@H](Cc1ccccc1)C(=O)N1CCC[C@H]1C(=O)N[C@H](C=O)CCCN=C(N)N [Efegatran]
Ki (thrombin [1]): 1.2 nM

NC(N)=NCCC[C@H](NC(=O)[C@@H]1CCCN1C(=O)[C@H](N)Cc1ccccc1)C(=O)CCl [PPACK, D-phenylalyl-L-prolyl-L-arginyl-chloromethyl ketone]
LD50 (mice): greater than 50 mg/kg
long-term toxicity (mice): no long-term toxicity
distribution half-life [2]: 7 min
elimination (clearance) half-life [2]: 2.9 min
time to occlusion of the carotid artery (C57BL/6 mice [3]): 71 ± 19 min
effect on occlusion time / thrombus formation (in words) (C57BL/6 mice [3]): allowed a steady approach to complete occlusion; also recorded: did not delay occlusion time
effect on thrombin activity against Chromozym TH (in words) (thrombin [4]): no significant thrombin activity apparent beyond a ten-fold excess
pseudo-first-order rate constant kapp (thrombin [4]; 0.92 nM thrombin, 5 nM PPACK or 0.3 pM PPACK nanoparticles): 1.824 min⁻¹
second order constant (k2/Ki), per PPACK (thrombin [4]; free PPACK or PPACK on the particles, 5 nM PPACK): 6.08e+06 M⁻¹ s⁻¹
decay constant of thrombin activity with inhibitor concentration (thrombin [4]; one-minute incubation, per PPACK concentration): 0.026 nM⁻¹
second order constant found by Kettner and Shaw (thrombin [5]): 2e+07 M⁻¹ s⁻¹

Bivalirudin nanoparticles: Bivalirudin conjugated at the N-terminus to Carboxy-PEG functionalized perfluorocarbon nanoparticles
stability of the nanoparticle formulation [6]: analogous coupling and stability characteristics
effect on occlusion time / thrombus formation (in words) (C57BL/6 mice [3]): Bivalirudin nanoparticles did

Bivalirudin: short synthetic peptide, specific and reversible direct thrombin inhibitor
effect on occlusion time / thrombus formation (in words) (C57BL/6 mice [3]): did not significantly extend occlusion time
effect on thrombin activity against Chromozym TH (in words) (thrombin [4]): less active, but more specific than PPACK

Heparin
occlusion time in previous trials (C57BL/6 mice [7]): 97 ± 18 min
time to occlusion of the carotid artery (C57BL/6 mice [3]): 102 ± 13 min
effect on occlusion time / thrombus formation (in words) (C57BL/6 mice [3]): formation of a stable thrombus was noticeably delayed
